# The supplement of paper PMC11208160
# Test: recombinant barcode read abundance after kanamycin selection (control-corrected) (log10(CPM+1)); higher = more efficient recombination; sequences stand for … in AGTGCAGAGAAAATCGGCCAGTTTTCTCTGCCTGCAGTCCGCATGCCGT…AGATTTATGCAGCGGACTGCCTTTCTCCCAAAGTGATAAACCGGACAGTATCATGGACCGGTTTTCCCGGTAATCCGTATTTGCAAGGTTGGTTTCACT; site = the 11-nt target
# Summary of the method: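 Targets were screened in pooled form in E. coli against IS621 bridge RNA target-binding loops. Recombination efficiency is based on barcode counts at recombinant junctions in counts per million, averaged and corrected for the control. Numbers are shown as log10(CPM+1), with duplicate plates on chloramphenicol/ampicillin LB agar (control) or chloramphenicol/ampicillin/kanamycin with 0.1 mM IPTG.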
# 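Also: IS621 recombinase and bridge RNA in Escherichia coli cells.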
row,Sequence,recombinant barcode read abundance (log10)
1,GGCACTTCTTGGGTTCTAACCTGTTGCCT (site GGCACTTCTAG),0.188
2,GGCACTTCTTGGGTTCTAACCTGTTGCCT (site GGCTCTTCTAG),0.136
3,GGCATGTCTTGGGTTCTAACCTGTTGCCT (site GGCATGTCTAG),1.15
4,GGCATGTCTTGGGTTCTAACCTGTTGCCT (site GGCTTGTCTAG),0.0534
5,GGCCCGCCTTGGGTTCTAACCTGTTGCCT (site AGCCCGCCTAG),0.0411
6,GGCCCGCCTTGGGTTCTAACCTGTTGCCT (site CGCCCGCCTAG),0.00686
7,GGCCCGCCTTGGGTTCTAACCTGTTGCCT (site GGCCCGCCTAG),0.734
8,GGCCCGCCTTGGGTTCTAACCTGTTGCCT (site TGCCCGCCTAG),0.0746
9,GGCGATCCTTGGGTTCTAACCTGTTGCCT (site GACGATCCTAG),0.151
10,GGCGATCCTTGGGTTCTAACCTGTTGCCT (site GCCGATCCTAG),0.213
11,GGCGATCCTTGGGTTCTAACCTGTTGCCT (site GGCGATCCTAG),1.15
12,GGCGATCCTTGGGTTCTAACCTGTTGCCT (site GTCGATCCTAG),0.059
13,GGCGCGTCTTGGGTTCTAACCTGTTGCAT (site GGAGCGTCTAC),0.0291
14,GGCGCGTCTTGGGTTCTAACCTGTTGCAT (site GGCGCGTCTAT),0.589
15,GGCGGCCCTTGGGTTCTAACCTGTTGCGG (site GACTGCCCTCC),0.103
16,GGCGGCCCTTGGGTTCTAACCTGTTGCGG (site GGCGGCCCTCC),2.31
17,GGCGTGCCTTGGGTTCTAACCTGTTGCGT (site AAGAACTCTTG),0.0755
18,GGCGTGCCTTGGGTTCTAACCTGTTGCGT (site GGCGTGCCTAC),2.95
19,GGCGTGTCTTGGGTTCTAACCTGTTGCGG (site GACGTGTCTCG),0.125
20,GGCGTGTCTTGGGTTCTAACCTGTTGCGG (site GGCGTGTCTCC),2.07
21,GGCTAGTCTTGGGTTCTAACCTGTTGCTT (site GGATTGTCTAA),0.109
22,GGCTAGTCTTGGGTTCTAACCTGTTGCTT (site GGCTAGTCTAA),0.561

row,Sequence,recombinant barcode read abundance (log10)
1,GGCTCTACTTGGGTTCTAACCTGTTGCGG (site GGCTAGACTCC),0.0656
2,GGCTCTACTTGGGTTCTAACCTGTTGCGG (site GGCTCTACTCC),0.326
3,GGCTCTTCTTGGGTTCTAACCTGTTGCCT (site GGCACTTCTAG),0.221
4,GGCTCTTCTTGGGTTCTAACCTGTTGCCT (site GGCTCTTCTAG),0.332
5,GGCTGTCCTTGGGTTCTAACCTGTTGCGT (site CTAAAAGCTTT),0.0937
6,GGCTGTCCTTGGGTTCTAACCTGTTGCGT (site GGCTGTCCTAC),0.751
7,GGGAACCCTTGGGTTCTAACCTGTTGCTG (site GGGAACCCTAA),0.0418
8,GGGAACCCTTGGGTTCTAACCTGTTGCTG (site GGGAACCCTCA),1.5
9,GGGAACCCTTGGGTTCTAACCTGTTGCTG (site GGGAACCCTGA),0.0561
10,GGGAACCCTTGGGTTCTAACCTGTTGCTG (site GGGAACCCTTA),0.867
11,GGGACAACTTGGGTTCTAACCTGTTGCCT (site GGGACAACTAG),0.0953
12,GGGACAACTTGGGTTCTAACCTGTTGCCT (site GGGGTAACTAG),0.0828
13,GGGACTACTTGGGTTCTAACCTGTTGCGG (site CGGGCTACTCC),0.0949
14,GGGACTACTTGGGTTCTAACCTGTTGCGG (site GGGACTACTCC),1.86
15,GGGACTTCTTGGGTTCTAACCTGTTGCAT (site GGGACTTCTAT),0.937
16,GGGACTTCTTGGGTTCTAACCTGTTGCAT (site GGGCCTTCTAT),0.0615
17,GGGACTTCTTGGGTTCTAACCTGTTGCAT (site GGGGCTTCTAT),0.273
18,GGGACTTCTTGGGTTCTAACCTGTTGCAT (site GGGTCTTCTAT),0.164
19,GGGATGGCTTGGGTTCTAACCTGTTGCCT (site GGGATGGCTAG),1.32
20,GGGATGGCTTGGGTTCTAACCTGTTGCCT (site TGGATGGCTAG),0.0489
21,GGGCAACCTTGGGTTCTAACCTGTTGCGT (site GGGCAACCTAC),2.84
22,GGGCAACCTTGGGTTCTAACCTGTTGCGT (site GGGCAGCCTAG),0.117

row,Sequence,recombinant barcode read abundance (log10)
1,GGGCACACTTGGGTTCTAACCTGTTGCAC (site CTTGCATCTAG),0.244
2,GGGCACACTTGGGTTCTAACCTGTTGCAC (site GGGCACACTGT),2.52
3,GGGCACACTTGGGTTCTAACCTGTTGCCA (site GGGAACACTTG),0.193
4,GGGCACACTTGGGTTCTAACCTGTTGCCA (site GGGCACACTTG),0.698
5,GGGCATCCTTGGGTTCTAACCTGTTGCAT (site GGGCATCCTAT),1.82
6,GGGCATCCTTGGGTTCTAACCTGTTGCAT (site TCATTAGCTCG),0.246
7,GGGCCCGCTTGGGTTCTAACCTGTTGCGG (site GGACGCGCTCC),0.111
8,GGGCCCGCTTGGGTTCTAACCTGTTGCGG (site GGGCCCGCTCC),1.29
9,GGGCCTACTTGGGTTCTAACCTGTTGCTA (site GGGCCTACTAA),0.0406
10,GGGCCTACTTGGGTTCTAACCTGTTGCTA (site GGGCCTACTCA),0.642
11,GGGCCTACTTGGGTTCTAACCTGTTGCTA (site GGGCCTACTGA),0.482
12,GGGCCTACTTGGGTTCTAACCTGTTGCTA (site GGGCCTACTTA),1.36
13,GGGCCTACTTGGGTTCTAACCTGTTGCTG (site GGGCCTACTAA),0.165
14,GGGCCTACTTGGGTTCTAACCTGTTGCTG (site GGGCCTACTCA),2.06
15,GGGCCTACTTGGGTTCTAACCTGTTGCTG (site GGGCCTACTGA),0.215
16,GGGCCTACTTGGGTTCTAACCTGTTGCTG (site GGGCCTACTTA),0.121
17,GGGGAATCTTGGGTTCTAACCTGTTGCAT (site GGGGAATCTAT),1.96
18,GGGGAATCTTGGGTTCTAACCTGTTGCAT (site GGGGACTCTGT),0.079
19,GGGGACTCTTGGGTTCTAACCTGTTGCAC (site GGGGAATCTAT),0.0994
20,GGGGACTCTTGGGTTCTAACCTGTTGCAC (site GGGGACTCTGT),3.1
21,GGGGCACCTTGGGTTCTAACCTGTTGCTA (site GGGGCACCTTA),2.35
22,GGGGCACCTTGGGTTCTAACCTGTTGCTA (site TGGGCACCTAA),0.128

row,Sequence,recombinant barcode read abundance (log10)
1,GGGGCGCCTTGGGTTCTAACCTGTTGCCT (site GGGGCGACTAG),0.44
2,GGGGCGCCTTGGGTTCTAACCTGTTGCCT (site GGGGCGCCTAG),1.76
3,GGGGCGCCTTGGGTTCTAACCTGTTGCCT (site GGGGCGGCTAG),0
4,GGGGCGCCTTGGGTTCTAACCTGTTGCCT (site GGGGCGTCTAG),0.279
5,GGGGTGTCTTGGGTTCTAACCTGTTGCCG (site ATTTAACCTAC),0.0514
6,GGGGTGTCTTGGGTTCTAACCTGTTGCCG (site GGGGTGTCTCG),0.675
7,GGGGTGTCTTGGGTTCTAACCTGTTGCTG (site GGGCTGTCTAA),0.448
8,GGGGTGTCTTGGGTTCTAACCTGTTGCTG (site GGGGTGTCTCA),0.413
9,GGGGTTCCTTGGGTTCTAACCTGTTGCAT (site GGGGTTCCTAA),0.164
10,GGGGTTCCTTGGGTTCTAACCTGTTGCAT (site GGGGTTCCTAC),0.129
11,GGGGTTCCTTGGGTTCTAACCTGTTGCAT (site GGGGTTCCTAG),1.19
12,GGGGTTCCTTGGGTTCTAACCTGTTGCAT (site GGGGTTCCTAT),2.47
13,GGGTCACCTTGGGTTCTAACCTGTTGCGG (site CCAAAGACTAA),0.564
14,GGGTCACCTTGGGTTCTAACCTGTTGCGG (site GGGTCACCTCC),2.8
15,GGGTCCACTTGGGTTCTAACCTGTTGCGG (site GGGTCCACTCC),2.02
16,GGGTCCACTTGGGTTCTAACCTGTTGCGG (site GGGTCCACTTG),0.143
17,GGGTCGCCTTGGGTTCTAACCTGTTGCTT (site CGGCCGCCTAA),0.364
18,GGGTCGCCTTGGGTTCTAACCTGTTGCTT (site GGGTCGCCTAA),0.128
19,GGGTCGGCTTGGGTTCTAACCTGTTGCGT (site GGGTCGGCTAC),2.68
20,GGGTCGGCTTGGGTTCTAACCTGTTGCGT (site GGGTCGGCTCC),0.076
